In PubChem BioAssay AID1918956 (Molecular Pharmacology Branch, DTP, NCI, 2023):
Values joined by “and” are separate entries in the source; they are usually repeats but may differ in a detail not shown here. Equal entries are not always repeated.

System: OVCAR-5 complex spheroids, viability
Experiment: Anticancer human tumor OVCAR-5 cell line growth inhibition;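 further: spheroids exposed to agents for seven days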;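 on viability, T/C: 100% = DMSO vehicle control wells viability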
Conditions: for viability, T/C: stronger effect = lower value
How it was run: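 Drug combinations with the LSD1 inhibitor iadademstat tested on tumor cells co-cultured as spheroids with endothelial cells and mesenchymal stem cells. Concentrations descended in half-log increments from clinical Cmax or 10 microM.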

[1] = curve of first compound, second compound 0.1 µM
[2] = curve of first compound, second compound 0.316 µM
[3] = curve of first compound, second compound 1 µM
[4] = curve of first compound, second compound 3.16 µM
[5] = curve of first compound, second compound 10 µM
[6] = second compound 0.1 µM, first compound 0.000949 µM
[7] = second compound 0.1 µM, first compound 0.003 µM
[8] = second compound 0.1 µM, first compound 0.00949 µM
[9] = second compound 0.1 µM, first compound 0.03 µM
[10] = second compound 0.1 µM, first compound 0.0949 µM
[11] = second compound 0.1 µM, first compound 0.3 µM
[12] = second compound 0.316 µM, first compound 0.000949 µM
[13] = second compound 0.316 µM, first compound 0.003 µM
[14] = second compound 0.316 µM, first compound 0.00949 µM
[15] = second compound 0.316 µM, first compound 0.03 µM
[16] = second compound 0.316 µM, first compound 0.0949 µM
[17] = second compound 0.316 µM, first compound 0.3 µM
[18] = second compound 1 µM, first compound 0.000949 µM
[19] = second compound 1 µM, first compound 0.003 µM
[20] = second compound 1 µM, first compound 0.00949 µM
[21] = second compound 1 µM, first compound 0.03 µM
[22] = second compound 1 µM, first compound 0.0949 µM
[23] = second compound 1 µM, first compound 0.3 µM
[24] = second compound 3.16 µM, first compound 0.000949 µM
[25] = second compound 3.16 µM, first compound 0.003 µM
[26] = second compound 3.16 µM, first compound 0.00949 µM
[27] = second compound 3.16 µM, first compound 0.03 µM
[28] = second compound 3.16 µM, first compound 0.0949 µM
[29] = second compound 3.16 µM, first compound 0.3 µM
[30] = second compound 10 µM, first compound 0.000949 µM
[31] = second compound 10 µM, first compound 0.003 µM
[32] = second compound 10 µM, first compound 0.00949 µM
[33] = second compound 10 µM, first compound 0.03 µM
[34] = second compound 10 µM, first compound 0.0949 µM
[35] = second compound 10 µM, first compound 0.3 µM

Row | Structure (SMILES) | IC50 [1] | IC50 [2] | IC50 [3] | IC50 [4] | IC50 [5] | viability, T/C [6] | viability, T/C [7] | viability, T/C [8] | viability, T/C [9] | viability, T/C [10] | viability, T/C [11] | viability, T/C [12] | viability, T/C [13] | viability, T/C [14] | viability, T/C [15] | viability, T/C [16] | viability, T/C [17] | viability, T/C [18] | viability, T/C [19] | viability, T/C [20] | other results
1 | CCc1c2c(nc3ccc(O)cc13)-c1cc3c(c(=O)n1C2)COC(=O)[C@]3(O)CC + NC1CC1c1ccc(-c2cccc(O)c2)cc1 | < 0.949 nM | < 0.949 nM | < 0.949 nM | < 0.949 nM | < 0.949 nM | 33% | 17.4% | 7.17% | 2.96% | 0.9% | 0.46% | 31.7% | 18.4% | 7.68% | 2.91% | 0.78% | 0.44% | 31.3% | 18% | 7.01% | viability, T/C [21]: 3.01%; viability, T/C [22]: 0.61%; viability, T/C [23]: 0.46%; viability, T/C [24]: 32.2%; viability, T/C [25]: 18.7%; viability, T/C [26]: 8.72%; viability, T/C [27]: 4.14%; viability, T/C [28]: 0.87%; viability, T/C [29]: 0.58%; viability, T/C [30]: 34%; viability, T/C [31]: 19.9%; viability, T/C [32]: 8.18%; viability, T/C [33]: 4.37%; viability, T/C [34]: 0.68%; viability, T/C [35]: 0.41%
2 | CCc1c2c(nc3ccc(O)cc13)-c1cc3c(c(=O)n1C2)COC(=O)[C@]3(O)CC + NC1CCC(NC2CC2c2ccccc2)CC1 | < 0.949 nM | < 0.949 nM | < 0.949 nM | < 0.949 nM | < 0.949 nM | 36.5% | 20.8% | 9.21% | 4.18% | 1.08% | 0.71% | 37% | 21.9% | 10.2% | 5.04% | 1.52% | 0.83% | 39.9% | 25.3% | 11.1% | viability, T/C [21]: 5.17%; viability, T/C [22]: 1.3%; viability, T/C [23]: 0.78%; viability, T/C [24]: 41.6%; viability, T/C [25]: 24.6%; viability, T/C [26]: 12.8%; viability, T/C [27]: 5.77%; viability, T/C [28]: 1.49%; viability, T/C [29]: 0.71%; viability, T/C [30]: 41%; viability, T/C [31]: 25.4%; viability, T/C [32]: 12.4%; viability, T/C [33]: 5.97%; viability, T/C [34]: 1.81%; viability, T/C [35]: 2.3%
3 | COc1cc(Nc2ncc3c(n2)-c2ccc(Cl)cc2C(c2c(F)cccc2OC)=NC3)ccc1C(=O)O |  |  |  |  |  |  |  |  |  |  |  |  |  |  |  |  |  |  |  |  | viability, T/C (compound 0.00316 µM): 94.1% and 95.2%; viability, T/C (compound 0.01 µM): 88.5% and 86.9%; viability, T/C (compound 0.0316 µM): 74.8% and 74.2%; viability, T/C (compound 0.1 µM): 59.8% and 52.2%; viability, T/C (compound 0.316 µM): 57% and 49%; viability, T/C (compound 1 µM): 53.1% and 49.2%; IC50 (curve of compound): > 1000 nM and 250 nM
